Experimental data as given in patent publication US5089623A, “Certain imidate insecticides” (Imperial Chemical Industries Plc, priority 1990, dated 1992).

Assays:
Format in all cases: in vivo
[1] = test system: Tobacco Budworm [Heliothis virescens (Fabricius)] eggs; experiment: Tobacco budworm egg test (TBW-E); conditions: percent in solution
Description: Eggs: Paper towel patches of 2-day old eggs of the tobacco budworm were dipped in acetone solutions of the test compound and placed in petri dishes containing a portion of larval rearing medium. […] Test concentrations ranged from 0.1% downward.

[2] = test system: Housefly [Musca domestica]; experiment: Housefly insecticidal test (HF); conditions: per 25 female houseflies, 48 hours
Protocol: Test compounds were diluted in acetone and aliquots pipetted onto the bottom of aluminum dishes. To ensure even spreading of the chemical on the bottom of the dishes, 1 ml of acetone containing 0.01% peanut oil was also added to each dish. After all solvents had evaporated, the dishes were placed in circular cardboard cages containing 25 female houseflies, 1-2 days old. The cages were covered on the bottom with cellophane and on the top with tulle netting, and each contained a sugar-water saturated cotton plug for maintenance of the flies. Mortality was recorded after 48 hours. Test levels ranged from 100μg/25 female houseflies downward.

[3] = test system: Cabbage Looper [Trichoplusia ni (Hubner)]; experiment: Cabbage looper test (CL); conditions: second-instar larvae, 3-5 days, percent in solution

Compound	LC50 TBW E [1]	LC50 HF [2]	LC50 CL [3]
CC(C)c1ccc(N=C(OCc2cccc(Oc3ccccc3)c2)C(C)(C)C)cc1 [Compound 165]	> 0.1%	> 100 µg	0.007%
CSc1cccc(N=C(OCc2cccc(Oc3ccccc3)c2)C(C)C)c1 [Compound 166]	> 0.1%	22 µg	0.009%
Cc1ccc(N=C(OCc2cccc(Oc3ccccc3)c2)C(C)(C)C)cc1C [Compound 167]	> 0.1%	> 100 µg	0.02%
CCOC(=O)c1cccc(N=C(OCc2cccc(Oc3ccccc3)c2)C(C)(C)C)c1 [Compound 168]	> 0.1%	> 100 µg	0.1%
COc1ccc(N=C(OCc2cccc(Oc3ccccc3)c2)C(C)C)cc1OC [Compound 169]	> 0.1%	10 µg	0.009%
CC(=O)c1cccc(N=C(OCc2cccc(Oc3ccccc3)c2)C(C)C)c1 [Compound 170]	> 0.1%	37 µg	0.1%
CCOc1cccc(N=C(OCc2cccc(Oc3ccccc3)c2)C(C)C)c1 [Compound 171]	> 0.1%	80 µg	0.01%
CC(C)(C)C(=Nc1cccc([N+](=O)[O-])c1)OCc1cccc(Oc2ccccc2)c1 [Compound 175]	> 0.1%	> 100 µg	0.018%
CC(C)C(=Nc1ccc2c(c1)OC(C)(C)O2)OCc1cccc(Oc2ccccc2)c1 [Compound 182]	0.04%	28 µg	0.0006%
CC(C)C(=Nc1ccc2c(c1)OCO2)OCc1cccc(Oc2ccccc2F)c1 [Compound 183]	0.075%	10 µg	0.00075%
CCCC(=Nc1ccc(OC)cc1)OCc1cccc(Oc2ccccc2)c1 [Compound 184]	> 0.1%	61 µg	0.024%
CCC(C)C(=Nc1ccc2c(c1)OCO2)OCc1cccc(Oc2ccccc2)c1 (stereo not drawn) [Compound 185]	0.075%	13 µg	0.0006%
CC(C)C(=Nc1ccc2c(c1)OCO2)OCc1cccc(Oc2ccccc2F)c1 [Compound 190]	0.023%	7.5 µg	0.0004%
CC(C)C(=Nc1cccc(C(F)(F)F)c1)OCc1cccc(Oc2cccc(F)c2)c1 [Compound 192]	0.07%	25 µg	0.0012%
CC(C)C(=Nc1ccc(Cl)c(C(F)(F)F)c1)OCc1cccc(Oc2cccc(F)c2)c1 [Compound 195]	> 0.1%	> 100 µg	0.002%
CC(C)C(=Nc1ccc(F)cc1)OCc1cccc(Oc2ccc(F)cc2)c1 [Compound 197]	0.05%	> 100 µg	0.0004%
CC(C)C(=Nc1cccc(F)c1)OCc1cccc(Oc2ccc(F)cc2)c1 [Compound 200]	0.1%	7.5 µg	0.00075%
COc1cccc(N=C(OCc2cccc(Oc3ccc(F)cc3)c2)C(C)C)c1 [Compound 201]	> 0.1%	15 µg	0.004%
CC(C)C(=Nc1ccc(F)cc1)OCc1cccc(Oc2cccc(Cl)c2)c1 [Compound 205]	> 0.1%	50 µg	0.004%
CC(C)C(=Nc1ccc(F)cc1)OCc1cccc(Oc2ccc(F)cc2F)c1 [Compound 206]	> 0.1%	50 µg	0.0017%
CC(C)C(=Nc1ccc(Cl)c(Cl)c1)OCc1cccc(Oc2cccc(Cl)c2)c1 [Compound 207]	> 0.1%	> 100 µg	0.008%
